Tests used:
[1] = test system: rd1 mouse; assay: rd1 mouse model of retinal degeneration, subretinal injection; type: in vivo; conditions: subretinal injection at P12, estimated final concentration 5 μM, harvested at P17
Method: FIG. 9 is a set of four images of retinal sections from an untreated rd1 mouse euthanized at P17 (upper panels) and an rd1 mouse receiving a subretinal injection of 30 μM compound 8 (final concentration ^˜5 μM) at P12 and euthanized at P17 (lower panels). The photographs show standard histological analysis of retinal sections stained with cresol purple. The right panels are expansions of similar regions in each retina near the optic nerve. The white brackets mark the outer nuclear layer containing photoreceptor nuclei.
(§1) The rd1 mouse is a newer designation for the classic rd mouse, which harbors a nonsense mutation in the PDE6B gene. […] The rd phenotype has been studied for many years, and allows for more rapid assessment of protection strategies. However, the onset of rod photoreceptor death overlaps with the later stages of development and synaptogenesis, making it difficult to distinguish between the primary effects of rod degeneration and the consequences of abnormal neural development. The rd10 phenotype is more reminiscent of typical human RP.
FIG. 9 is a comparison of two rd1 eyes, one untreated (upper panel) and one receiving a subretinal injection of compound 8 to an estimated final concentration of 5 μM at P12. […] Indeed, the entire retina was healthier in appearance in the treated eye.

[2] = test system: rd10 mouse; assay: rd10 mouse model of retinal degeneration, intravitreal injection; type: in vivo; conditions: intravitreal injection at P15, final concentration ~0.5 mM, euthanized at P25; PBS in the other eye
Method: FIG. 8 is a set of two images of retinal sections from the left eye (left panel) and right eye (right panel) of an rd10 mouse, intravitreally injected with PBS and 5 mM compound 9 (final concentration ^˜0.5 mM), respectively, at P15 and euthanized at P25. Retinas were sectioned at 20 microns, and stained with DAPI. Images are confocal stacks taken very close to the optic nerve. The outer nuclear layers corresponding to photoreceptor cells are shown with white brackets.
as §1
(§2) In separate experiments on adult wild-type mice, the ERG a and b waves were blocked during a similar 10-day treatment, as expected for a concentration in excess of that required to completely block CNG channels. In the rd10 mouse some degeneration was probably underway before the treatment began.

[3] = test system: adult wild-type mice; assay: ERG in adult wild-type mice during 10-day treatment; type: in vivo, mouse; conditions: similar 10-day treatment
Text: as §2

Row | SMILES | rescuing effect on retina [1] | outer nuclear layer thickness ([1]; untreated eye one cell thick) | neuroprotection of the photoreceptor layer [2] | ERG a and b waves [3]
1 | CCCCNc1ccc(C(=S)NCCN(C)C)cc1 [Compound 8, 4-(Butylamino)-N-(2-(dimethylamino)ethyl)benzothioamide] | very noticeable rescuing effect | about three cells thick |  | 
2 | CCCCCCCCNc1ccc(C(=S)NCCN(C)C)cc1 [Compound 9, 4-(Octylamino)-N-(2-(dimethylamino)ethyl)benzothioamide] |  |  | striking neuroprotection of the photoreceptor layer | blocked

From patent US9458102B2 (priority 2011, dated 2016)
